For data set [1], the target named is T1, Estrogen Receptor (ERα) in MCF-7 cells (Homo sapiens (Human), UniProt P03372). The data set can be described thus: MCF-7 ER down-regulation assay (immuno-fluorescence). To be noted: for IC50: 18-22 hours incubation. The class given is cell-based.
The target in data set [2] is estrogen receptor (ERα) in CAMA-1 cells (Homo sapiens (Human), UniProt P03372). The data set can be described thus: Western blotting assay, CAMA-1 cells. It is filed as cell-based. To be noted: compound 100 nM, 48 h, normalised to 100 nM fulvestrant (100%).
The target in data set [3] is T1, Estrogen Receptor (ERα) in MCF-7 cells. The data set can be described thus: Western blotting assay, MCF-7 cells. Conditions: compound 100 nM, 48 h, normalised to 100 nM fulvestrant (100%). The class given is cell-based.
The nature of data set [4]: Thermodynamic solubility (shake flask). It is filed as physicochemical. To be noted: aqueous phosphate buffer, 25 °C, pH 7.4, aqueous buffer, thermodynamic from solid, aqueous phosphate buffer pH 7.4, 24 hours.
The nature of data set [5]: Human plasma protein binding (equilibrium dialysis). It is filed as in vitro ADME. To be noted: dialysis 18 hours.
The next data set is described as follows: physchem. Conditions: 1-octanol/aqueous buffer, pH 7.4.

≈ marks a conversion by molar mass, not a printed value.

T1 sequence (P03372 whole entry): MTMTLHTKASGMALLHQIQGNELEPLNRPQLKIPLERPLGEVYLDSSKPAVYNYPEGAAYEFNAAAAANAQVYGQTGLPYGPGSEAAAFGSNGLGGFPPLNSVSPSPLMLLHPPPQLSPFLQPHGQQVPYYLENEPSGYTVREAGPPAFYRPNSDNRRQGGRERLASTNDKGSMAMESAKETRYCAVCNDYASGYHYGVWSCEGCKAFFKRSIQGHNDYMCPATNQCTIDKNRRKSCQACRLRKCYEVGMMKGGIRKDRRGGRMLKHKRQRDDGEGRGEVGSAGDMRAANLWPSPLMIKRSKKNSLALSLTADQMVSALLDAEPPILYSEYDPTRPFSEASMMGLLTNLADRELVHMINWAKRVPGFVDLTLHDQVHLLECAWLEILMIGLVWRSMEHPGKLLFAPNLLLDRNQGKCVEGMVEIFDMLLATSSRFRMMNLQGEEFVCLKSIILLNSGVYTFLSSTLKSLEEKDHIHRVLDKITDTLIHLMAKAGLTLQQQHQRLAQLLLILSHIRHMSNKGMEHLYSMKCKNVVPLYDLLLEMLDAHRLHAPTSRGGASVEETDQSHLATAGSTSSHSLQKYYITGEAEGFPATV
Sequence of estrogen receptor (ERα) in CAMA-1 cells (P03372 whole entry): as above

In the case of `COc1cc(NCCNCCCF)ccc1[C@@H]1c2[nH]c3ccccc3c2C[C@@H](C)N1CC1(F)COC1` [Example 47, N1-(4-((1R,3R)-2-((3-fluorooxetan-3-yl)methyl)-3-methyl-2,3,4,9-tetrahydro-1H-pyrido[3,4-b]indol-1-yl)-3-methoxyphenyl)-N2-(3-fluoropropyl)ethane-1,2-diamine], the IC50 in data set [1] was 0.24 nM. Besides, in data set [2], the “CAMA1 Western % ER deg vs Fv” value was determined as 81%. Moreover, in data set [3], the “MCF7 Western % ER deg vs Fv” value was 90%. The compound also yielded a solubility at 24 h in data set [4] of 840 µM (≈ 419 µg/mL). The “Human plasma protein binding (% free)” value in data set [5] is listed as 5.0 % free. The compound also had a logD in “physchem” of 2.5.
For the compound `COc1cc(OCCNCCCF)ncc1[C@@H]1c2[nH]c3ccccc3c2C[C@@H](C)N1CC(C)(C)F` [Example 36, 3-fluoro-N-(2-((5-((1R,3R)-2-(2-fluoro-2-methylpropyl)-3-methyl-2,3,4,9-tetrahydro-1H-pyrido[3,4-b]indol-1-yl)-4-methoxypyridin-2-yl)oxy)ethyl)propan-1-amine], in data set [1], the IC50 was 0.14 nM. The “CAMA1 Western % ER deg vs Fv” value in data set [2] amounted to 66%. The “MCF7 Western % ER deg vs Fv” value in data set [3] worked out at 83%. The solubility at 24 h in data set [4] is 291 µM (≈ 142 µg/mL). Besides, the “Human plasma protein binding (% free)” value in data set [5] is 2.1 % free. Moreover, the logD in the data set “physchem” worked out at 3.5.
As to `COc1cc(OCCNCCCF)ncc1[C@@H]1c2[nH]c3ccccc3c2C[C@@H](C)N1CC(F)(F)CO` [Example 64, 2,2-difluoro-3-((1R,3R)-1-(6-(2-((3-fluoropropyl)amino)ethoxy)-4-methoxypyridin-3-yl)-3-methyl-1,3,4,9-tetrahydro-2H-pyrido[3,4-b]indol-2-yl)propan-1-ol], in data set [1], inhibition was half-maximal at 0.21 nM (IC50). Also, the “CAMA1 Western % ER deg vs Fv” value in data set [2] amounted to 87%. For the same compound, the “MCF7 Western % ER deg vs Fv” value in data set [3] is on record as 73%. The compound also gave a solubility at 24 h in data set [4] of 849 µM (≈ 430 µg/mL). Also, in data set [5], the “Human plasma protein binding (% free)” value came to 12 % free. Also, the logD in the data set “physchem” worked out at 2.2.
`C[C@@H]1Cc2c([nH]c3ccccc23)[C@@H](c2c(F)cc(OCCNCCC(F)F)cc2F)N1CC(C)(C)F` [Example 3, N-(2-(3,5-difluoro-4-((1R,3R)-2-(2-fluoro-2-methylpropyl)-3-methyl-2,3,4,9-tetrahydro-1H-pyrido[3,4-b]indol-1-yl)phenoxy)ethyl)-3,3-difluoropropan-1-amine] gave an IC50 in data set [1] of 0.14 nM. Also, the “CAMA1 Western % ER deg vs Fv” value in data set [2] was determined as 0%. Besides, the “MCF7 Western % ER deg vs Fv” value in data set [3] is 64%. This compound also gave a solubility at 24 h in data set [4] of 4 µM (≈ 2.04 µg/mL). The “Human plasma protein binding (% free)” value in data set [5] is under 2.6 % free. In the data set “physchem”, this compound came in with a logD of over 4.3.
In data set [1], `COc1cc(OCCNCCCF)ncc1[C@@H]1c2[nH]c3ccccc3c2C[C@@H](C)N1CC(F)(F)F` [Example 41, 3-Fluoro-N-(2-((4-methoxy-5-((1R,3R)-3-methyl-2-(2,2,2-trifluoroethyl)-2,3,4,9-tetrahydro-1H-pyrido[3,4-b]indol-1-yl)pyridin-2-yl)oxy)ethyl)propan-1-amine] gave a concentration for half-maximal inhibition (IC50) of 0.14 nM. Besides, the “CAMA1 Western % ER deg vs Fv” value in data set [2] amounted to 89%. For the same compound, in data set [3], the “MCF7 Western % ER deg vs Fv” value is reported as 74%. Further, the solubility at 24 h in data set [4] is 389 µM (≈ 192 µg/mL). For the same compound, in data set [5], the “Human plasma protein binding (% free)” value turned out to be 2.4 % free. This compound displayed a logD in “physchem” of 3.2.
Take `C[C@@H]1Cc2c([nH]c3ccccc23)[C@@H](c2c(F)cc(NCCNCCCF)cc2F)N1CC1(F)CC1` [Example 9, N^1-(3,5-difluoro-4-((1R,3R)-2-((1-fluorocyclopropyl)methyl)-3-methyl-2,3,4,9-tetrahydro-1H-pyrido[3,4-b]indol-1-yl)phenyl)-N^2-(3-fluoropropyl)ethane-1,2-diamine]: inhibition in data set [1] was half-maximal at 0.22 nM (IC50). Also, the “CAMA1 Western % ER deg vs Fv” value in data set [2] turned out to be 80%. In data set [3], the “MCF7 Western % ER deg vs Fv” value came out at 82%.
In the case of `COc1cc(OCCNCCCF)ncc1[C@@H]1c2[nH]c3ccccc3c2C[C@@H](C)N1CC(C)(F)F` [Example 42, N-(2-((5-((1R,3R)-2-(2,2-Difluoropropyl)-3-methyl-2,3,4,9-tetrahydro-1H-pyrido[3,4-b]indol-1-yl)-4-methoxypyridin-2-yl)oxy)ethyl)-3-fluoropropan-1-amine], in data set [1], the IC50 worked out at 0.079 nM. Also, the “CAMA1 Western % ER deg vs Fv” value in data set [2] turned out to be 76%. For the same compound, the “MCF7 Western % ER deg vs Fv” value in data set [3] is listed as 90%. In data set [4], this compound registered a solubility at 24 h of 220 µM (≈ 108 µg/mL). Further, the “Human plasma protein binding (% free)” value in data set [5] is on record as 1.6 % free. The compound further displayed a logD in the data set “physchem” of 3.3.
For `C[C@@H]1Cc2c([nH]c3ccccc23)[C@@H](c2ccc(OCCNCCCF)cc2)N1CC(F)F` [Example 56, N-(2-(4-((1R,3R)-2-(2,2-difluoroethyl)-3-methyl-2,3,4,9-tetrahydro-1H-pyrido[3,4-b]indol-1-yl)phenoxy)ethyl)-3-fluoropropan-1-amine], the midpoint of inhibition in data set [1], the IC50, lay at 0.4 nM. For the same compound, the “CAMA1 Western % ER deg vs Fv” value in data set [2] was 66%. For the same compound, in data set [3], the “MCF7 Western % ER deg vs Fv” value is listed as 74%. Further, the solubility at 24 h in data set [4] was 184 µM (≈ 82 µg/mL). In the data set “physchem”, this compound gave a logD of 3.3.
As for `COc1cc(OCCNCCCF)ccc1[C@@H]1c2[nH]c3ccccc3c2C[C@@H](C)N1CC1(F)COC1` [Example 8, 3-fluoro-N-(2-(4-((1R,3R)-2-((3-fluorooxetan-3-yl)methyl)-3-methyl-2,3,4,9-tetrahydro-1H-pyrido[3,4-b]indol-1-yl)-3-methoxyphenoxy)ethyl)propan-1-amine], the “CAMA1 Western % ER deg vs Fv” value in data set [2] worked out at 38%. In addition, the “MCF7 Western % ER deg vs Fv” value in data set [3] amounted to 77%.
`C[C@@H]1Cc2c([nH]c3ccccc23)[C@@H](c2c(F)cc(N(C)CCNCCCF)cc2F)N1CC(F)F` [Example 49, N1-(4-((1R,3R)-2-(2,2-difluoroethyl)-3-methyl-2,3,4,9-tetrahydro-1H-pyrido[3,4-b]indol-1-yl)-3,5-difluorophenyl)-N2-(3-fluoropropyl)-N1-methylethane-1,2-diamine] registered an IC50 in data set [1] of 0.25 nM. The “CAMA1 Western % ER deg vs Fv” value in data set [2] worked out at 95%. Moreover, in data set [3], the “MCF7 Western % ER deg vs Fv” value came out at 100%. For the same compound, in data set [4], the solubility at 24 h worked out at 70 µM (≈ 34.6 µg/mL). The “Human plasma protein binding (% free)” value in data set [5] came to 0.40 % free.
The like results for `C[C@@H]1Cc2c([nH]c3ccccc23)[C@@H](c2c(F)cc(NCCNCCCF)cc2F)N1CC(F)F` [Example 54, N1-(4-((1R,3R)-2-(2,2-difluoroethyl)-3-methyl-2,3,4,9-tetrahydro-1H-pyrido[3,4-b]indol-1-yl)-3,5-difluorophenyl)-N2-(3-fluoropropyl)ethane-1,2-diamine] were, in that order, 0.13 nM, 92%, 87%, 242 µM (≈ 116 µg/mL) and 1.3 % free.
In turn, `COc1cc(OCCNCCCF)ccc1[C@@H]1c2[nH]c3ccccc3c2C[C@@H](C)N1CC1(F)CC1` [Example 11, 3-fluoro-N-(2-(4-((1R,3R)-2-((1-fluorocyclopropyl)methyl)-3-methyl-2,3,4,9-tetrahydro-1H-pyrido[3,4-b]indol-1-yl)-3-methoxyphenoxy)ethyl)propan-1-amine] had an IC50 in data set [1] of 0.46 nM. Moreover, the “CAMA1 Western % ER deg vs Fv” value in data set [2] was found to be 54%. Besides, the “MCF7 Western % ER deg vs Fv” value in data set [3] is given as 81%.
The compound `C[C@@H]1Cc2c([nH]c3ccccc23)[C@@H](c2ccc(OCCNCCCF)cc2)N1CC(C)(F)F` [Example 57, N-(2-(4-((1R,3R)-2-(2,2-difluoropropyl)-3-methyl-2,3,4,9-tetrahydro-1H-pyrido[3,4-b]indol-1-yl)phenoxy)ethyl)-3-fluoropropan-1-amine] showed an IC50 in data set [1] of 0.27 nM. The compound further showed a solubility at 24 h in data set [4] of 35 µM (≈ 16.1 µg/mL). For the same compound, the “Human plasma protein binding (% free)” value in data set [5] amounted to 0.41 % free. Also, the logD in “physchem” came to 4.
`C[C@@H]1Cc2c([nH]c3ccccc23)[C@@H](c2ccc(OCCNCCCF)nc2)N1CC1(F)CC1` [Example 33, 3-fluoro-N-(2-((5-((1R,3R)-2-((1-fluorocyclopropyl)methyl)-3-methyl-2,3,4,9-tetrahydro-1H-pyrido[3,4-b]indol-1-yl)pyridin-2-yl)oxy)ethyl)propan-1-amine]: it took 3.3 nM to reach half-maximal inhibition in data set [1] (IC50). For the same compound, the “% downregulation” value in data set [1] (shown in brackets where not >90%) is recorded as “(87%)”. Further, the solubility at 24 h in data set [4] was determined as 244 µM (≈ 111 µg/mL). Moreover, the “Human plasma protein binding (% free)” value in data set [5] came to 3.0 % free. This compound displayed a logD in the data set “physchem” of 3.
For `COc1cc(OCCNCCCF)ccc1[C@@H]1c2[nH]c3ccccc3c2C[C@@H](C)N1CC(C)(F)F` [Example 74, N-(2-(4-((1R,3R)-2-(2,2-difluoropropyl)-3-methyl-2,3,4,9-tetrahydro-1H-pyrido[3,4-b]indol-1-yl)-3-methoxyphenoxy)ethyl)-3-fluoropropan-1-amine], 0.14 nM corresponded to half-maximal inhibition in data set [1] (IC50). Moreover, the solubility at 24 h in data set [4] turned out to be 30 µM (≈ 14.7 µg/mL). The “Human plasma protein binding (% free)” value in data set [5] turned out to be 0.33 % free. This compound also yielded a logD in “physchem” of 3.9.
For `C[C@@H]1Cc2c([nH]c3ccccc23)[C@@H](c2ccc(OCCNCCCF)cc2F)N1CC(F)F` [Example 48, N-(2-(4-((1R,3R)-2-(2,2-difluoroethyl)-3-methyl-2,3,4,9-tetrahydro-1H-pyrido[3,4-b]indol-1-yl)-3-fluorophenoxy)ethyl)-3-fluoropropan-1-amine], the concentration for half-maximal inhibition (IC50) in data set [1] is 0.26 nM. Moreover, the “CAMA1 Western % ER deg vs Fv” value in data set [2] amounted to 65%. The “MCF7 Western % ER deg vs Fv” value in data set [3] was found to be 58%. The compound further had a solubility at 24 h in data set [4] of 94 µM (≈ 43.6 µg/mL). Also, in “physchem”, the logD is 3.4.

These data come from US10149839B2, “Chemical compounds” (AstraZeneca AB, priority 2016, dated 2018).
